Data taken from publication PMC8510013, “Active Flavonoids from Colubrina greggii var. greggii S. Watson against Clinical Isolates of Candida spp” (Molecules, 2021).
Converted amounts (≈) assume the structure as drawn. Like-named read-outs stand apart in the source and are kept apart here.

Legend:
Candida glabrata = details: cited from earlier work
C. tropicalis [1] = test: Broth microdilution antifungal assay (CLSI M27-A2), clinical isolates; type: cell-based, Candida tropicalis
Method: (§1) Clinical isolates were provided by the Microbiology Department of the Medical School, UANL: isolates 97 and 98 of C. albicans, isolates 83 and 84 of C. glabrata, isolates 95 and 96 of C. parapsilosis, isolates 105 and 166 of C. tropicalis, and isolates 137 and 168 of C. krusei.
(§2) Inoculates from the above-mentioned isolates were prepared and growing on Sabouraud agar. The extracts were tested using microdilution assay according to the protocol M27-A2 defined by the Clinical Laboratory Standards Institute. Two clinical isolates were used for each species of Candida, and each test was made in duplicate. Isolates 83 and 84 of C. glabrata are resistant strains to fluconazole. Serial two-fold dilutions ranging from 2 to 500 μg/mL were made for all extracts, fractions, and isolated compounds. The minimal inhibitory concentration (MIC) was defined as the lowest tested extract concentration that inhibits 100% of organism growth compared to the growth of the drug-free control.

C. parapsilosis [2] = test: as above; type: cell-based, Candida parapsilosis
Method: as §1, §2

C. glabrata = test: as above; type: cell-based, Candida glabrata
Method: as §1, §2

Candida albicans = test: as above; type: cell-based
Method: as §1, §2

C. krusei [3] = test: as above; type: cell-based, Candida krusei
Method: as §1, §2

[4] = Brine shrimp lethality bioassay; details: Artemia salina, in vivo; 24 h counts, mean (n = 3) ± SD
Method: In order to evaluate the toxicity of the compounds with antifungal activity obtained during separation, a test of lethality to Artemia salina brine shrimp was made. Concentrations of 1, 10, 100, and 500 ppm of each active fraction and each compound were tested. […] LC50 values greater than 200 ppm were considered non-toxic.

[5] = In vitro cytotoxic assay on Vero cell line (MTT); type: cell-based; details: African green monkey, Vero cells, mean (n = 3) ± SD
Method: The cytotoxicity assay was performed by the 3-(4,5-dimethylthiazol-2-yl) 2,5-diphenyltetrazolium bromide (MTT) assay as previously described. The Vero cell line was maintained in DMEM supplemented with 2% FBS, streptomycin, and penicillin at 1%. All cell cultures were incubated at 37 °C in a humidified atmosphere of 5% CO2. Cells were harvested, counted, and transferred into 96 well plates and incubated for 24 h prior to the addition of test compounds. Serial dilutions of test samples were prepared by dissolving compounds in DMSO followed by dilution with DMEM to yield the final DMSO concentration in the assay well as 1%. Stock solutions of fractions and compounds 1, 2, and 3 were prepared at […] and diluted further to yield concentrations ranging from 2000–15.6 μg/mL. The plates were incubated for 48 h. MTT (3-[4,5-dimethylthiazol-2-yl]-2,5-diphenyltetrazolium bromide) (5 mg) was dissolved in 1 mL of Phosphate Buffer Solution (PBS) and 10 μL of it was added to each of the 96 wells. The plates were incubated at 37 °C for 3 h. The solution in each well-containing media, unbound MTT and dead cells were removed by suction and 100 μL of DMSO was added to each well. The plates were then shaken and optical density was recorded using a microplate reader at 540 nm. Doxorubicin was used as positive control and DMSO as solvent control. The CC50 was determined as the concentration of extract required reducing cell viability by 50%, taking as 100%, the untreated cells. The experiments were performed in triplicate for each extract. In parallel, we performed the same experiment using untreated cells as a control.

C. albicans = details: cited from earlier work
C. tropicalis [6] = tested on: C. tropicalis; design: method as in doi:10.1016/j.phytol.2015.02.006; details: C. tropicalis ATCC 750; cited from earlier work
C. parapsilosis [7] = details: C. parapsilosis ATCC 20019; cited from earlier work
C. krusei [8] = details: C. krusei ATCC 20298; cited from earlier work
[9] = Candida tropicalis, Ct isolate 105, read-out: MIC
[10] = Lodderomyces parapsilosis, Cp isolate 95, read-out: MIC
[11] = Lodderomyces parapsilosis, Cp isolate 96, read-out: MIC
[12] = Nakaseomyces glabratus, Cg isolate 83, fluconazole-resistant clinical isolate, read-out: MIC
[13] = Nakaseomyces glabratus, Cg isolate 84, fluconazole-resistant clinical isolate, read-out: MIC
[14] = Candida albicans, Ca isolate 97, read-out: MIC
[15] = Pichia kudriavzevii, Ck isolate 137, read-out: MIC
[16] = Pichia kudriavzevii, Ck isolate 168, read-out: MIC
[17] = Nakaseomyces glabratus, C. glabrata, isolate not stated, read-out: MIC

Row | Molecule | MIC (C. tropicalis [1]; [9]) [µg/mL] | MIC (C. tropicalis [1]; Ct isolate 166) [µg/mL] | MIC (C. parapsilosis [2]; [10]) [µg/mL] | MIC (C. parapsilosis [2]; [11]) [µg/mL] | MIC (C. glabrata; [12]) [µg/mL] | MIC (C. glabrata; [13]) [µg/mL] | MIC (Candida albicans; Ca isolate 98) [µg/mL] | MIC (Candida albicans; [14]) [µg/mL] | MIC (C. krusei [3]; [15]) [µg/mL] | MIC (C. krusei [3]; [16]) [µg/mL] | MIC (C. glabrata; [17]) [µg/mL] | LC50 at 24 h [4] [µg/mL] | CC50 at 48 h [5] [µg/mL] | also measured
1 | O=c1c(O)c(-c2ccc(O)cc2)oc2cc(O)cc(O)c12 [kaempferol, reference compound] | – | – | – | – | – | – | – | – | – | – | – | – | – | MIC (Candida glabrata; six clinical isolates of Candida glabrata including one resistant to fluconazole): 31.5 µg/mL (≈ 110 µM)
2 | OC(Cn1cncn1)(Cn1cncn1)c1ccc(F)cc1F [Fluconazol, reference compound] | 2 (≈ 6.53 µM) | 2 (≈ 6.53 µM) | 0.5 (≈ 1.63 µM) | 1 (≈ 3.27 µM) | 32 (≈ 104 µM) | 63 (≈ 206 µM) | 4 (≈ 13.1 µM) | 4 (≈ 13.1 µM) | 32 (≈ 104 µM) | 4 (≈ 13.1 µM) | – | – | – | –
3 | C[C@@H]1O[C@@H](Oc2c(-c3ccc(O)c(O)c3)oc3cc(O)cc(O)c3c2=O)[C@H](O[C@@H]2OC[C@@H](O)[C@H](O)[C@H]2O)[C@H](O)[C@H]1O [Compound 2, quercetin 3-O-α-L-rhamnopyranosyl-L-(2→1)-O-β-xylopyranoside] | > 500 | >500 | > 500 | > 500 | 63 (≈ 109 µM) | 63 (≈ 109 µM) | >500 | > 500 | > 500 | > 500 | 63 (≈ 109 µM) | 322.8 ± 0.009 (≈ 556 µM) | > 2000 | –
4 | C[C@@H]1O[C@@H](Oc2c(-c3ccc(O)cc3)oc3cc(O)cc(O)c3c2=O)[C@H](O[C@@H]2OC[C@@H](O)[C@H](O)[C@H]2O)[C@H](O)[C@H]1O [Compound 3, kaempferol 3-O-α-L-rhamnopyranosyl-L-(2→1)-O-β-xylopyranoside] | > 500 | >500 | > 500 | > 500 | 16 (≈ 28.3 µM) | 16 (≈ 28.3 µM) | >500 | > 500 | > 500 | > 500 | 16 (≈ 28.3 µM) | 254.8 ± 0.024 (≈ 451 µM) | > 2000 | –
5 | C[C@@H]1O[C@@H](Oc2c(-c3ccc(O)c(O)c3)oc3cc(O)cc(O)c3c2=O)[C@H](O)[C@H](O)[C@H]1O [Compound 1, quercetin 3-O-α-L-rhamnoside] | – | >500 | – | – | – | – | 500 (≈ 1120 µM) | – | – | – | – | > 500 | 1660 ± 81 (≈ 3700 µM) | MIC (C. albicans; C. albicans ATCC 18804): below 250 μg/mL; MIC (C. tropicalis [1]; Candida tropicalis): > 500 µg/mL; MIC (C. tropicalis [6]): below 250 μg/mL; MIC (C. parapsilosis [2]; Cp isolate 95): 125 µg/mL (≈ 279 µM); MIC (C. parapsilosis [2]; Cp isolate 96): 125 µg/mL (≈ 279 µM); MIC (C. parapsilosis [2]; Lodderomyces parapsilosis): 125 µg/mL (≈ 279 µM); MIC (C. glabrata; Cg isolate 83, fluconazole-resistant clinical isolate): 16 µg/mL (≈ 35.7 µM); MIC (C. glabrata; Cg isolate 84, fluconazole-resistant clinical isolate): 16 µg/mL (≈ 35.7 µM); MIC (C. glabrata; Nakaseomyces glabratus): 16 µg/mL (≈ 35.7 µM); MIC (C. parapsilosis [7]): below 250 μg/mL; MIC (Candida glabrata; isolates 510, 493, 482, 531 of C. glabrata): 7.8 µg/mL (≈ 17.4 µM); MIC (Candida albicans; Ca isolate 97): 500 µg/mL (≈ 1120 µM); MIC (Candida albicans; Candida albicans): 500 µg/mL (≈ 1120 µM); MIC (C. krusei [8]): below 250 μg/mL; MIC (C. krusei [3]; Ck isolate 137): 500 µg/mL (≈ 1120 µM); MIC (C. krusei [3]; Ck isolate 168): 500 µg/mL (≈ 1120 µM); MIC (C. krusei [3]; Pichia kudriavzevii): 500 µg/mL (≈ 1120 µM)
6 | Kaempferol-3-O-rutinoside [reference compound] | – | – | – | – | – | – | – | – | – | – | – | – | – | MIC (C. albicans; Candida albicans ATCC 14053 and ATCC10231): 500 µg/mL
